Measured values from the supplement of paper PMC10307832.

Columns and labels:
Assay in all cases: relative viability (nuclei count vs DMSO), 5 days (fraction); higher = more cells survive
[1] = compound: CC1=CC(=NN1)NC2=CC(=NC(=N2)/C=C/C3=CC=CC=C3)N4CCN(CC4)C
Summary of the method: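 Five library-drug doses spaced by √10 were pinned onto vehicle-anchored 1536-well plates of lung cancer cell lines that had been kept overnight at 37 °C. Cells went 5 days without medium change, then were fixed, permeabilised and Hoechst-stained together, imaged at 4× and counted by MetaXpress. Viability is the ratio of treated-well to vehicle-well nuclei, taken as a median over plates. Plates required control CV below 25% and at least one doubling.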

[2] = compound: CC1=CC(=NN1)NC2=CC(=NC(=N2)/C=C/C3=CC=CC=C3)N4CCN(CC4)C + CC(=O)c1c(C)c2cnc(Nc3ccc(N4CCNCC4)cn3)nc2n(C2CCCC2)c1=O [Palbociclib] (partner 0.5 µM)
Summary of the method: (§1)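 Medians of duplicate plates are given as relative viability. That measure is the nuclei count in treated wells divided by the count in vehicle wells. Counts were taken on 4× images of lung cancer cell lines in 1536-well plates, 5 days after pin-tool dosing the day after seeding with one drug alone or a fixed anchor-drug dose plus five library-drug doses (not always all listed) in √10 steps.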

Bortezomib + Dasatinib = compound: CC(C)C[C@H](NC(=O)[C@H](Cc1ccccc1)NC(=O)c1cnccn1)B(O)O [Bortezomib] + Cc1nc(Nc2ncc(C(=O)Nc3c(C)cccc3Cl)s2)cc(N2CCN(CCO)CC2)n1 [Dasatinib] (partner 0.075 µM)
Summary of the method: as §1

[3] = compound: CC1=CC(=NN1)NC2=CC(=NC(=N2)/C=C/C3=CC=CC=C3)N4CCN(CC4)C + Nc1nc2[nH]cc(CCc3ccc(C(=O)N[C@@H](CCC(=O)O)C(=O)O)cc3)c2c(=O)[nH]1 [Pemetrexed] (partner 0.2 µM)
Summary of the method: as §1

| Cell Line | relative viability ([1]; 0.08 µM) | relative viability ([1]; 0.253 µM) | relative viability ([1]; 0.8 µM) | relative viability ([1]; 2.53 µM) | relative viability ([1]; 8 µM) | relative viability ([2]; first compound 0.08 µM) | relative viability ([2]; first compound 0.253 µM) | relative viability ([2]; first compound 0.8 µM) | relative viability ([2]; first compound 2.53 µM) | relative viability ([2]; first compound 8 µM) | relative viability (Bortezomib + Dasatinib; first compound 0.0002 µM) | relative viability (Bortezomib + Dasatinib; first compound 0.000632 µM) | relative viability (Bortezomib + Dasatinib; first compound 0.002 µM) | relative viability (Bortezomib + Dasatinib; first compound 0.006325 µM) | relative viability (Bortezomib + Dasatinib; first compound 0.02 µM) | relative viability ([3]; first compound 0.08 µM) | relative viability ([3]; first compound 0.253 µM) | relative viability ([3]; first compound 0.8 µM) | relative viability ([3]; first compound 2.53 µM) | relative viability ([3]; first compound 8 µM) |
| --- | --- | --- | --- | --- | --- | --- | --- | --- | --- | --- | --- | --- | --- | --- | --- | --- | --- | --- | --- | --- |
| NCI-H2126 | 0.993 | 1.04 | 0.961 | 0.875 | 0.41 | 0.336 | 0.341 | 0.32 | 0.306 | 0.243 | 0.58 | 0.607 | 0.662 | 0.254 | 0.2 | 0.696 | 0.649 | 0.633 | 0.569 | 0.426 |
| NCI-H2170 | 0.971 | 1.04 | 0.868 | 0.77 | 0.266 | 0.401 | 0.396 | 0.387 | 0.31 | 0.144 | 0.546 | 0.378 | 0.502 | 0.16 | 0.144 | 0.266 | 0.246 | 0.248 | 0.193 | 0.181 |
| NCI-H2228 | 0.846 | 1.18 | 0.782 | 0.179 | 0.0666 | 0.64 | 0.727 | 0.518 | 0.0712 | 0.0545 | 0.475 | 0.464 | 0.328 | 0.0587 | 0.0925 | 0.306 | 0.309 | 0.276 | 0.0818 | 0.055 |
| NCI-H2342 | 0.913 | 0.938 | 1.1 | 0.916 | 0.366 | 0.531 | 0.517 | 0.532 | 0.527 | 0.492 | 0.286 | 0.306 | 0.322 | 0.334 | 0.349 | 0.642 | 0.81 | 0.819 | 0.769 | 0.473 |
| NCI-H2347 | 0.966 | 1.11 | 1.1 | 0.891 | 0.525 | 0.426 | 0.412 | 0.411 | 0.435 | 0.362 | 0.685 | 0.353 | 0.332 | 0.321 | 0.219 | 0.418 | 0.415 | 0.447 | 0.397 | 0.379 |
| NCI-H2405 | 0.979 | 0.889 | 1.06 | 0.458 | 0.201 | 0.553 | 0.555 | 0.521 | 0.411 | 0.174 | 0.18 | 0.188 | 0.288 | 0.16 | 0.144 | 1.02 | 0.979 | 1.04 | 0.503 | 0.162 |
| NCI-H3122 | 1.01 | 0.857 | 0.982 | 0.956 | 0.308 | 0.207 | 0.19 | 0.224 | 0.174 | 0.165 | 0.878 | 0.873 | 0.901 | 0.233 | 0.0847 | 0.2 | 0.203 | 0.206 | 0.186 | 0.147 |
| PC-3 [JPC-3] | 1.03 | 1.07 | 1.09 | 1.04 | 0.726 | 0.537 | 0.587 | 0.54 | 0.529 | 0.491 | 0.961 | 0.994 | 0.991 | 0.199 | 0.106 | 1.15 | 1.2 | 1.03 | 0.849 | 0.361 |
| PC-14 | 1 | 1.07 | 0.968 | 0.427 | 0.104 | 0.526 | 0.497 | 0.443 | 0.22 | 0.0464 | 0.294 | 0.236 | 0.168 | 0.028 | 0.0371 | 0.14 | 0.134 | 0.15 | 0.0655 | 0.0336 |
| RERF-LC-KJ | 0.979 | 0.964 | 0.932 | 0.555 | 0.279 | 1.03 | 1.15 | 0.92 | 0.647 | 0.336 | 0.833 | 0.695 | 0.946 | 0.219 | 0.234 | 0.439 | 0.484 | 0.484 | 0.397 | 0.224 |
| SK-LU-1 | 1.05 | 1.09 | 0.962 | 0.455 | 0.143 | 0.453 | 0.368 | 0.457 | 0.248 | 0.155 | 0.17 | 0.202 | 0.214 | 0.0951 | 0.118 | 1 | 0.943 | 0.933 | 0.372 | 0.127 |
| SK-MES-1 | 0.998 | 1.09 | 0.941 | 0.475 | 0.162 | 0.357 | 0.289 | 0.309 | 0.257 | 0.155 | 0.375 | 0.351 | 0.35 | 0.124 | 0.125 | 0.908 | 0.995 | 0.89 | 0.213 | 0.162 |
| SW 900 | 0.665 | 0.844 | 0.856 | 0.459 | 0.262 | 0.514 | 0.542 | 0.497 | 0.284 | 0.12 | 0.74 | 0.507 | 0.167 | 0.107 | 0.116 | 0.469 | 0.491 | 0.49 | 0.407 | 0.102 |
| SW 1573 | 0.935 | 0.952 | 0.826 | 0.299 | 0.0971 | 0.378 | 0.442 | 0.301 | 0.131 | 0.0733 | 0.488 | 0.867 | 0.24 | 0.0568 | 0.052 | 0.802 | 0.852 | 0.735 | 0.126 | 0.0679 |
| UMC-11 | 0.928 | 0.904 | 0.693 | 0.187 | 0.141 | 0.327 | 0.342 | 0.323 | 0.232 | 0.232 | 0.389 | 0.491 | 0.439 | 0.278 | 0.171 | 0.74 | 0.705 | 0.481 | 0.148 | 0.122 |
